In US10927354B2, “D-type amino acid dehydrogenase” (Kureha Corporation, priority 2017, dated 2021):

Columns and labels:
Type in all cases: biochemical, Numidum massiliense
[1] = system: D-type amino acid dehydrogenase derived from N. massiliense (wild type); experiment: D-amino acid synthesis activity, wild type enzyme; conditions: 5 mM 2-oxo acid, 200 mM ammonium chloride, pH 9.5, 50° C.; for D-amino acid synthesis activity (specific activity), Wild type, NADH: 0.1 mM NADH; for D-amino acid synthesis activity (specific activity), Wild type, NADPH: 0.1 mM NADPH
Procedure: (§1) The activity of the enzyme was measured by determining a decrease in absorbance at wavelength of 340 nm of NADPH or NADH produced by the catalytic reaction of the enzyme. […] The absorbance was measured by an ultraviolet-visible spectrophotometer UV-1800 (available from SHIMADZU).

[2] = system: three-mutation introduced D-type amino acid dehydrogenase (Thr174Ile, Arg184Met, His230Asn); experiment: D-amino acid synthesis activity, three-mutation enzyme; conditions: 5 mM 2-oxo acid, 200 mM ammonium chloride, pH 9.5, 50° C.; for D-amino acid synthesis activity (specific activity), Three-mutation enzyme, NADH: 0.1 mM NADH; for D-amino acid synthesis activity (specific activity), Three-mutation enzyme, NADPH: 0.1 mM NADPH
Description: DNA encoding polypeptide in which three types of mutations (Thr174Ile, Arg184Met, and His230Asn) were introduced into the amino acid sequence of D-type amino acid dehydrogenase derived from N. massiliense was obtained by synthesis. This was cleaved with restriction enzymes NdeI and EcoRI, separated by agarose gel electrophoresis, and then extracted and purified from the gel. DNA fragments after a restriction enzyme treatment were incorporated into restriction enzyme sites (NdeI and EcoRI) of pET-21a(+) (available from Novagen) of a plasmid for protein expression by a ligation reaction to construct an expression vector that retains three-mutation introduced D-type amino acid dehydrogenase gene. The expression vector was constructed such that the three-mutation introduced D-type amino acid dehydrogenase gene was incorporated into downstream of the T7 promoter and the […] binding site, and upstream of the T7 terminator.
as §1

[3] = system: five-mutation introduced D-type amino acid dehydrogenase (Met155Leu, Val159Gly, Thr174Ile, Arg184Met, His230Asn); experiment: D-amino acid synthesis activity, five-mutation enzyme; conditions: 5 mM 2-oxo acid, 200 mM ammonium chloride, pH 9.5, 50° C.; for D-amino acid synthesis activity (specific activity), Five-mutation enzyme, NADH: 0.1 mM NADH; for D-amino acid synthesis activity (specific activity), Five-mutation enzyme, NADPH: 0.1 mM NADPH
Procedure: In order to prepare a gene for a mutant enzyme in which five types of mutations (Met155Leu, Val159Gly, Thr174Ile, Arg184Met, and His230Asn) are introduced into the D-type amino acid dehydrogenase derived from N. massiliense, the six mutation-introduced D-type amino acid dehydrogenase/pET-21a(+) prepared above was used as a template to prepare the expression vector by PCR using “PrimeSTAR Max DNA Polymerase” available from Takara Bio Inc. PCR was performed according to the manufacturer's protocol. A PCR reaction solution was prepared by containing 0.3 μM of each of the following primers and 50 ng of templet DNA as described above.
as §1

[4] = system: six-mutation introduced D-type amino acid dehydrogenase (Asp95Ser, Met155Leu, Val159Gly, Thr174Ile, Arg184Met, His230Asn); experiment: D-amino acid synthesis activity, six-mutation enzyme; conditions: 5 mM 2-oxo acid, 200 mM ammonium chloride, pH 9.5, 50° C.; for D-amino acid synthesis activity (specific activity), Six-mutation enzyme, NADH: 0.1 mM NADH; for D-amino acid synthesis activity (specific activity), Six-mutation enzyme, NADPH: 0.1 mM NADPH
Procedure: DNA encoding polypeptide into which six types of mutations (Asp95Ser, Met155Leu, Val159Gly, Thr174Ile, Arg184Met, and His230Asn) were introduced into the amino acid sequence of D-type amino acid dehydrogenase derived from N. massiliense was obtained by synthesis. An expression vector that retains the six-mutation introduced D-type amino acid dehydrogenase gene was further constructed in the same manner as described above.
as §1

CC(C)C(=O)C(=O)O [2-oxo-3-methylbutanoic acid] was tested, and the “D-amino acid synthesis activity (specific activity), Wild type, NADH” value [1] was 0.0012 µmol/min/mg, the “D-amino acid synthesis activity (specific activity), Wild type, NADPH” value [1] was 0.26 µmol/min/mg and the “D-amino acid synthesis activity (specific activity), Three-mutation enzyme, NADH” value [2] was 0.043 µmol/min/mg. For the same molecule, the “D-amino acid synthesis activity (specific activity), Three-mutation enzyme, NADPH” value [2] was 2.5 µmol/min/mg, the “D-amino acid synthesis activity (specific activity), Five-mutation enzyme, NADH” value [3] was 0.018 µmol/min/mg and the “D-amino acid synthesis activity (specific activity), Five-mutation enzyme, NADPH” value [3] was 2.4 µmol/min/mg. For the same molecule, the “D-amino acid synthesis activity (specific activity), Six-mutation enzyme, NADH” value [4] was “No” and the “D-amino acid synthesis activity (specific activity), Six-mutation enzyme, NADPH” value [4] was 0.051 µmol/min/mg.
With CCC(C)C(=O)C(=O)O (centres unmarked) [2-oxo-3-methylpentanoic acid] the “D-amino acid synthesis activity (specific activity), Wild type, NADH” value [1] was “No”, the “D-amino acid synthesis activity (specific activity), Wild type, NADPH” value [1] was 0.18 µmol/min/mg and the “D-amino acid synthesis activity (specific activity), Three-mutation enzyme, NADH” value [2] was 0.043 µmol/min/mg. For the same molecule, the “D-amino acid synthesis activity (specific activity), Three-mutation enzyme, NADPH” value [2] was 4.7 µmol/min/mg, the “D-amino acid synthesis activity (specific activity), Five-mutation enzyme, NADH” value [3] was 0.025 µmol/min/mg and the “D-amino acid synthesis activity (specific activity), Five-mutation enzyme, NADPH” value [3] was 4.0 µmol/min/mg. For the same molecule, the “D-amino acid synthesis activity (specific activity), Six-mutation enzyme, NADH” value [4] was 0.0030 µmol/min/mg and the “D-amino acid synthesis activity (specific activity), Six-mutation enzyme, NADPH” value [4] was 0.23 µmol/min/mg.
With O=C(O)C(=O)Cc1ccccc1 [2-oxo-3-phenylpropanoic acid] the “D-amino acid synthesis activity (specific activity), Wild type, NADH” value [1] was 0.011 µmol/min/mg, the “D-amino acid synthesis activity (specific activity), Wild type, NADPH” value [1] was 1.5 µmol/min/mg and the “D-amino acid synthesis activity (specific activity), Three-mutation enzyme, NADH” value [2] was 0.028 µmol/min/mg. For the same molecule, the “D-amino acid synthesis activity (specific activity), Three-mutation enzyme, NADPH” value [2] was 1.5 µmol/min/mg, the “D-amino acid synthesis activity (specific activity), Five-mutation enzyme, NADH” value [3] was 0.012 µmol/min/mg and the “D-amino acid synthesis activity (specific activity), Five-mutation enzyme, NADPH” value [3] was 2.7 µmol/min/mg. For the same molecule, the “D-amino acid synthesis activity (specific activity), Six-mutation enzyme, NADH” value [4] was 0.018 µmol/min/mg and the “D-amino acid synthesis activity (specific activity), Six-mutation enzyme, NADPH” value [4] was 2.1 µmol/min/mg.
For CSCCC(=O)C(=O)O [2-oxo-4-(methylthio)butanoic acid], the “D-amino acid synthesis activity (specific activity), Wild type, NADH” value [1] was “No”, the “D-amino acid synthesis activity (specific activity), Wild type, NADPH” value [1] was 2.0 µmol/min/mg and the “D-amino acid synthesis activity (specific activity), Three-mutation enzyme, NADH” value [2] was 0.013 µmol/min/mg. For the same molecule, the “D-amino acid synthesis activity (specific activity), Three-mutation enzyme, NADPH” value [2] was 5.2 µmol/min/mg, the “D-amino acid synthesis activity (specific activity), Five-mutation enzyme, NADH” value [3] was 0.069 µmol/min/mg and the “D-amino acid synthesis activity (specific activity), Five-mutation enzyme, NADPH” value [3] was 12.3 µmol/min/mg. For the same molecule, the “D-amino acid synthesis activity (specific activity), Six-mutation enzyme, NADH” value [4] was 0.024 µmol/min/mg and the “D-amino acid synthesis activity (specific activity), Six-mutation enzyme, NADPH” value [4] was 2.8 µmol/min/mg.
With CC(C)CC(=O)C(=O)O [2-oxo-4-methylpentanoic acid] the “D-amino acid synthesis activity (specific activity), Wild type, NADH” value [1] was “No”, the “D-amino acid synthesis activity (specific activity), Wild type, NADPH” value [1] was 0.803 µmol/min/mg and the “D-amino acid synthesis activity (specific activity), Three-mutation enzyme, NADH” value [2] was 0.044 µmol/min/mg. The “D-amino acid synthesis activity (specific activity), Three-mutation enzyme, NADPH” value [2] was 4.6 µmol/min/mg, the “D-amino acid synthesis activity (specific activity), Five-mutation enzyme, NADH” value [3] was 0.055 µmol/min/mg and the “D-amino acid synthesis activity (specific activity), Five-mutation enzyme, NADPH” value [3] was 9.0 µmol/min/mg. For the same molecule, the “D-amino acid synthesis activity (specific activity), Six-mutation enzyme, NADH” value [4] was 0.011 µmol/min/mg and the “D-amino acid synthesis activity (specific activity), Six-mutation enzyme, NADPH” value [4] was 1.2 µmol/min/mg.
With O=C(O)CC(=O)C(=O)O [2-oxobutanedioic acid] the “D-amino acid synthesis activity (specific activity), Wild type, NADH” value [1] was 0.13 µmol/min/mg, the “D-amino acid synthesis activity (specific activity), Wild type, NADPH” value [1] was 5.2 µmol/min/mg and the “D-amino acid synthesis activity (specific activity), Three-mutation enzyme, NADH” value [2] was 0.12 µmol/min/mg. For the same molecule, the “D-amino acid synthesis activity (specific activity), Three-mutation enzyme, NADPH” value [2] was 2.0 µmol/min/mg, the “D-amino acid synthesis activity (specific activity), Five-mutation enzyme, NADH” value [3] was 0.25 µmol/min/mg and the “D-amino acid synthesis activity (specific activity), Five-mutation enzyme, NADPH” value [3] was 0.39 µmol/min/mg. The “D-amino acid synthesis activity (specific activity), Six-mutation enzyme, NADH” value [4] was 0.14 µmol/min/mg and the “D-amino acid synthesis activity (specific activity), Six-mutation enzyme, NADPH” value [4] was 0.44 µmol/min/mg.
In the case of CCC(=O)C(=O)O [2-oxobutanoic acid], the “D-amino acid synthesis activity (specific activity), Wild type, NADH” value [1] is reported as 0.011 µmol/min/mg, the “D-amino acid synthesis activity (specific activity), Wild type, NADPH” value [1] is reported as 1.4 µmol/min/mg and the “D-amino acid synthesis activity (specific activity), Three-mutation enzyme, NADH” value [2] is reported as 0.028 µmol/min/mg. The “D-amino acid synthesis activity (specific activity), Three-mutation enzyme, NADPH” value [2] was 2.2 µmol/min/mg, the “D-amino acid synthesis activity (specific activity), Five-mutation enzyme, NADH” value [3] was 0.014 µmol/min/mg and the “D-amino acid synthesis activity (specific activity), Five-mutation enzyme, NADPH” value [3] was 1.6 µmol/min/mg. The “D-amino acid synthesis activity (specific activity), Six-mutation enzyme, NADH” value [4] was 0.0011 µmol/min/mg and the “D-amino acid synthesis activity (specific activity), Six-mutation enzyme, NADPH” value [4] was 0.027 µmol/min/mg.
In the case of O=C(O)CCC(=O)C(=O)O [2-oxoglutaric acid], the “D-amino acid synthesis activity (specific activity), Wild type, NADH” value [1] is reported as “No”, the “D-amino acid synthesis activity (specific activity), Wild type, NADPH” value [1] is reported as 0.11 µmol/min/mg and the “D-amino acid synthesis activity (specific activity), Three-mutation enzyme, NADH” value [2] is reported as “No”. The “D-amino acid synthesis activity (specific activity), Three-mutation enzyme, NADPH” value [2] was “No”, the “D-amino acid synthesis activity (specific activity), Five-mutation enzyme, NADH” value [3] was “No” and the “D-amino acid synthesis activity (specific activity), Five-mutation enzyme, NADPH” value [3] was “No”. The “D-amino acid synthesis activity (specific activity), Six-mutation enzyme, NADH” value [4] was “No” and the “D-amino acid synthesis activity (specific activity), Six-mutation enzyme, NADPH” value [4] was “No”.
CCCCCCC(=O)C(=O)O [2-oxooctanoic acid] was tested, and the “D-amino acid synthesis activity (specific activity), Wild type, NADH” value [1] was “No”, the “D-amino acid synthesis activity (specific activity), Wild type, NADPH” value [1] was 5.8 µmol/min/mg and the “D-amino acid synthesis activity (specific activity), Three-mutation enzyme, NADH” value [2] was 0.039 µmol/min/mg. The “D-amino acid synthesis activity (specific activity), Three-mutation enzyme, NADPH” value [2] was 8.2 µmol/min/mg, the “D-amino acid synthesis activity (specific activity), Five-mutation enzyme, NADH” value [3] was 0.050 µmol/min/mg and the “D-amino acid synthesis activity (specific activity), Five-mutation enzyme, NADPH” value [3] was 11.2 µmol/min/mg. For the same molecule, the “D-amino acid synthesis activity (specific activity), Six-mutation enzyme, NADH” value [4] was 1.0 µmol/min/mg and the “D-amino acid synthesis activity (specific activity), Six-mutation enzyme, NADPH” value [4] was 9.0 µmol/min/mg.
With CC(=O)C(=O)O [2-oxopropanoic acid] the “D-amino acid synthesis activity (specific activity), Wild type, NADH” value [1] was 0.13 µmol/min/mg, the “D-amino acid synthesis activity (specific activity), Wild type, NADPH” value [1] was 4.7 µmol/min/mg and the “D-amino acid synthesis activity (specific activity), Three-mutation enzyme, NADH” value [2] was 0.000 µmol/min/mg. For the same molecule, the “D-amino acid synthesis activity (specific activity), Three-mutation enzyme, NADPH” value [2] was 2.2 µmol/min/mg, the “D-amino acid synthesis activity (specific activity), Five-mutation enzyme, NADH” value [3] was 0.046 µmol/min/mg and the “D-amino acid synthesis activity (specific activity), Five-mutation enzyme, NADPH” value [3] was 0.30 µmol/min/mg. For the same molecule, the “D-amino acid synthesis activity (specific activity), Six-mutation enzyme, NADH” value [4] was 0.12 µmol/min/mg and the “D-amino acid synthesis activity (specific activity), Six-mutation enzyme, NADPH” value [4] was 0.0070 µmol/min/mg.
